Results from US20260217652A1, “PHENYL-SUBSTITUTED HETEROARYL COMPOUND AND PHARMACEUTICAL COMPOSITION COMPRISING SAME, PREPARATION METHOD THEREFOR AND USE THEREOF” (SHANGHAI MEIYUE BIOTECH DEVELOPMENT CO., LTD., priority 2023, published 2026).
Like-named read-outs stand apart in the source and are kept apart here.

Experiments:
p38 MAPK/MK2 = target: T1, p38 MAPK/MK2 (Homo sapiens, UniProt Q16539); assay: In vitro activity assay of p38 MAPK/MK2 (Z-LYTE kinase assay kit); type: biochemical; settings: active p38α, inactive MK2, Ser/Thr 4; 1-hour reaction at 20° C.
T1 construct: purchased Carna (p38α); Abcam (MK2) 04-152; 79910
T1 sequence (Q16539 whole entry): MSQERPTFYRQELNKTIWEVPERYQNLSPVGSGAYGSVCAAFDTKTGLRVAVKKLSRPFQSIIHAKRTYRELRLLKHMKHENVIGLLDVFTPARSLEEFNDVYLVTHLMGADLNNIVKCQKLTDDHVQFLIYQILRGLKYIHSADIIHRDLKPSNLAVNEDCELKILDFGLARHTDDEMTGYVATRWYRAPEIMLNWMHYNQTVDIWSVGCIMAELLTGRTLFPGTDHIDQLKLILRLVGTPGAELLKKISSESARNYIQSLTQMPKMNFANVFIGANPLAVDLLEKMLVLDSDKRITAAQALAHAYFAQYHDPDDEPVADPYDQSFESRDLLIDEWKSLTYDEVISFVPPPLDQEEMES
T1 sequence (P49137 whole entry partner): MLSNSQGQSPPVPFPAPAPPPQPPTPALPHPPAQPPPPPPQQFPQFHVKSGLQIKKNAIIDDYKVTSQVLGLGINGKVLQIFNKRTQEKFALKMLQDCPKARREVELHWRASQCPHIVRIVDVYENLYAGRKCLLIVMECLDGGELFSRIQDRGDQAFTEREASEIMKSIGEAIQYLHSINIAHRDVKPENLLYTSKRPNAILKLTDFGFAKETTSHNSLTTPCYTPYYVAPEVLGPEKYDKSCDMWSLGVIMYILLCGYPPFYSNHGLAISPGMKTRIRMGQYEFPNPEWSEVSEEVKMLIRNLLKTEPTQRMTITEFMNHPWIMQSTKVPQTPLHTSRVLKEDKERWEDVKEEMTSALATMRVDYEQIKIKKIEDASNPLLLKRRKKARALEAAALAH
Experimental: (§1) The inhibitory effect of the compound on p38 MAPK/MK2 was evaluated using the Z-LYTE kinase assay kit (Thermo, PV3177). The test compound was dissolved in DMSO to obtain a 10 mM stock solution and stored at −20° C. for future use. The initial concentration of the compound was […], with 1% DMSO, 5-fold serial dilution, 8 concentrations, and duplicate wells. […] After a 1-hour reaction at 20° C., Development Reagent A diluted 2048-fold was added to each well, followed by incubation at room temperature for 1 hour. The reaction was terminated by adding 5 μL of stop buffer, and the plate was read using a microplate reader (Ex. 400 nm, Em. 445 nm; Ex. 400 nm, Em. 520 nm). The concentration-effect curve was fitted using GraphPad Prism 8 software, and the compound concentration resulting in 50% inhibition, IC50, was calculated.

[1] = tested on: TNF-α in human PBMC cells; assay: In vitro TNF-α activity assay in human PBMC cell supernatant (LPS, ELISA); type: cell-based; settings: LPS 100 ng/mL, read-out: p38 MAPK/TNF-α IC50
Experimental: The inhibitory effect of the compound on TNF-α in the supernatant of human PBMC cells was evaluated using an ELISA detection kit (Beyotime, PI518). The test compound was dissolved in DMSO to obtain a 10 mM stock solution and stored at −20° C. for future use. The initial concentration of the compound was […], followed by 5-fold serial dilution to obtain 6 concentrations. Cells were plated in duplicate, and ELISA was performed in single wells. The final concentration of DMSO was 0.4%. Alternatively, the initial concentration of the compound, dilution factor, number of concentration gradients, and replicates could be adjusted based on the specific screening conditions.
Fresh human peripheral blood mononuclear cells (PBMCs) (Sailybio) were seeded at a density of 2×10^5 cells per well in a 96-well plate (Corning, 3599), with each well containing 100 μL of RPMI-1640 (Gibco #A1049101)+10% FBS (Gibco, 10099141C), and incubated overnight at 37° C. under 5% CO2. Test compounds were added to the 96-well culture plate at a volume of 25 μL per well. After 1 hour, 5 μL of LPS was added to achieve a final concentration of 100 ng/mL. No LPS and compound were added to the negative control wells, and no compound was added to the positive control wells. The mixture was further incubated for 24 hours at 37° C. under 5% CO2. Subsequently, the cell culture supernatant was collected by centrifugation at 500 rcf for 8 minutes. The concentration of TNF-α was measured according to the operation manual of the ELISA kit. The concentration-effect curve was fitted using GraphPad Prism 8 software, and the compound concentration resulting in 50% inhibition, IC50, was calculated.

[2] = In vitro liver microsome stability, mouse; type: in vitro ADME; settings: liver microsomes, 0.5 mg/mL microsomes, 1 μM compound, NADPH, 37° C., read-out: Mouse liver microsomes Half-life T1/2
Experimental: (§2) The reference compound used in this experiment was Ketanserin, and the final concentration of microsomes in the experimental system was 0.5 mg/mL. The PBS buffer was a 50 mM K2HPO4 buffer. The concentration of the test compound was 1 μM. The microsomes were added to PBS, and the control/test compounds were respectively added to the corresponding reaction systems, mixed thoroughly, and pre-incubated in a 37° C. water bath for 5 minutes. The reaction was initiated by adding 20 mM NADPH solution under 37° C. water bath conditions (for the No NADPH samples, an equal volume of PBS solution was used as a substitute for the 20 mM NADPH solution). At the reaction time points of 0 min, 10 min, 30 mun, 60 min, and 90 min, 30 μL of reaction samples were taken from each reaction system (for the No NADPH samples, sampling was performed at 0 min and 90 min), and the reaction was immediately terminated by adding 300 μL of the internal standard acetonitrile solution. After centrifugation at 4000 rpm, the supernatant was taken and mixed thoroughly with an equal volume of pure water. The samples at each time point were analyzed by LC-MS/MS (AB Triple Quard 5500) to determine the compound content, and the T1/2 was calculated.

[3] = In vitro liver microsome stability, rat; type: in vitro ADME; settings: liver microsomes, 0.5 mg/mL microsomes, 1 μM compound, NADPH, 37° C., read-out: Rat liver microsomes Half-life T1/2
Experimental: as §2

[4] = In vitro liver microsome stability, human; type: in vitro ADME; settings: liver microsomes, 0.5 mg/mL microsomes, 1 μM compound, NADPH, 37° C., read-out: Human liver microsomes Half-life T1/2
Experimental: as §2

p38 MAPK/MK5 = target: T2, p38 MAPK/MK5 (Homo sapiens, UniProt Q16539); assay: In vitro activity assay of p38 MAPK/MK5 (Z-LYTE kinase assay kit); type: biochemical; settings: active p38α, inactive MK5, Ser/Thr 4; 4-hour reaction at 20° C.
T2 construct: purchased Carna (p38α); Abcam (MK5) 04-152; 217826
T2 sequence (Q16539 whole entry): as the sequence (Q16539 whole entry) above
Experimental: as §1, with “MAPK/MK5” for “MAPK/MK2”, “4-hour” for “1-hour”, “µL” for “μL”

[5] = Pharmacokinetic evaluation in mice; type: in vivo; settings: mouse, plasma; for AUC(0-t): read-out: Area under curve AUC0-24 h; for clearance: read-out: Clearance CL (converted); for half-life: read-out: Half-life T1/2 (converted); for C0: read-out: Initial concentration C0; for Vd: read-out: Volume of distribution Vd; for bioavailability: read-out: Bioavailability F %; for Cmax: read-out: Maximum concentration Cmax
Experimental: The compound was weighed and dissolved in a mixed solvent of DMAC: Solutol: PBS (1:1:8. After intravenous/gastric administration to mice, whole blood ([…]) was collected at 0.083, 0.25, 0.5, 1, 2, 4, 7, and 24 hours. The samples were anticoagulated with EDTA-K2, immediately centrifuged at 4000 rpm for 5 minutes at 4° C., and the supernatant was frozen in a −80° C. refrigerator. Plasma sample processing: The samples were precipitated with an internal standard-containing CH3CN precipitant, followed by centrifugation at 12700 rpm for 10 min. The supernatant was collected and analyzed by LC-MS/MS (AB Triple Quard 5500) to obtain the plasma drug concentration. The parameters were calculated using a non-compartmental model in Winnolin version 8.1.

[6] = intravenous injection group 1 mg/kg
[7] = po, intragastric administration group 5 mg/kg

IC50 (p38 MAPK/MK2)	half-life at 1 μM [4]	Compound	IC50 ([1]; Homo sapiens, PBMC, 24 h)	also measured
0.09 nM	> 4.66 h	Cc1cnc(-c2ccc(F)c([C@@](C)(O)CO)c2F)c(F)c1-n1c(C)cc(OCc2ncc(F)cc2F)c(Cl)c1=O [Compound 113-P1]	1.7 nM	–
0.1 nM	> 4.66 h	CNC(=O)C(C)(O)c1cc(-c2ncc(C)c(-n3c(C)cc(OCc4ncc(F)cc4F)c(Cl)c3=O)c2F)ccc1F (stereo not drawn) [Compound 124-P2]	–	–
0.15 nM	> 4.66 h	Cc1cnc(-c2ccc(F)c(C(C)(O)C(N)=O)c2)c(F)c1-n1c(C)cc(OCc2ncc(F)cc2F)c(Cl)c1=O (stereo not drawn) [Compound 128-P1]	–	–
11.7 nM	–	Cc1cnc(-c2cccc(C(C)(C)CO)c2F)cc1-n1c(C)cc(OCc2ncc(F)cc2F)c(Cl)c1=O [Compound 137]	0.84 nM	–
0.794 nM	–	Cc1cc(OCc2ncc(F)cc2F)c(Cl)c(=O)n1-c1ccnc(-c2cccc(C(C)(C)O)c2F)c1 [Compound 141]	14.1 nM	half-life at 1 μM [2]: > 4.66 h; half-life at 1 μM [3]: 2.51 h
1.19 nM	> 4.66 h	[2H]C([2H])(Oc1cc(C)n(-c2cc(-c3ccc(F)c([C@@](C)(O)CO)c3F)ncc2C)c(=O)c1Cl)c1ncc(F)cc1F [Compound 145-P1]	8.51 nM	half-life at 1 μM [2]: > 4.66 h; half-life at 1 μM [3]: > 4.66 h
1.43 nM	> 4.66 h	[2H]C([2H])(Oc1cc(C)n(-c2cc(-c3cccc([C@@](C)(O)CO)c3F)ncc2C)c(=O)c1Cl)c1ncc(F)cc1F [Compound 146-P1]	3.38 nM	half-life at 1 μM [2]: 2.29 h; half-life at 1 μM [3]: > 4.66 h
1.56 nM	–	Cc1cnc(-c2cccc([C@@H](O)CO)c2F)cc1-n1c(C)cc(OCc2ncc(F)cc2F)c(Cl)c1=O [Compound 151-P1]	12.9 nM	–

Further lines, the molecule ahead of its results:

Compound	IC50 (p38 MAPK/MK2)	half-life at 1 μM [4]	IC50 ([1]; Homo sapiens, PBMC, 24 h)	also measured
CNC(=O)c1cccc(-c2cc(-n3c(C)cc(OCc4ncc(F)cc4F)c(Cl)c3=O)c(C)cn2)c1F (single isomer, unassigned) [Compound 20-P2]	0.27 nM	> 4.66 h	–	IC50 ([1]; 24 hours): 4.2 nM; half-life at 1 μM [2]: > 4.66 h; half-life at 1 μM [3]: > 4.66 h
Cc1cnc(-c2cccc(C(=O)N(C)C)c2)cc1-n1c(C)cc(OCc2ncc(F)cc2F)c(Cl)c1=O [Compound 3]	21.7 nM	–	–	IC50 (p38 MAPK/MK5): > 10000 nM
Cc1cnc(-c2cccc(S(C)(=O)=O)c2)cc1-n1c(C)cc(OCc2ncc(F)cc2F)c(Cl)c1=O [Compound 11]	14.6 nM	> 4.66 h	18.4 nM	half-life at 1 μM [2]: 4.22 h; half-life at 1 μM [3]: 3.79 h
CNC(=O)c1cccc(-c2cc(-n3c(C)cc(OCc4ncc(F)cc4F)c(Cl)c3=O)c(C)cn2)c1F [Compound 20]	1.03 nM	–	–	IC50 ([1]; 24 hours): 8.68 nM
Cc1cnc(-c2cccc(C(N)=O)c2)c(F)c1-n1c(C)cc(OCc2ncc(F)cc2F)c(Cl)c1=O [Compound 30-P1]	0.16 nM	–	8.68 nM	IC50 (p38 MAPK/MK5): 5660 nM; AUC(0-t) [5, 6]: 1100 ng·h/mL; clearance [5, 6]: 15.2 mL/min/kg; half-life [5, 6]: 0.47 h; C0 [5, 6]: 2410 ng/mL; Vd [5, 6]: 0.41 L/kg; AUC(0-t) [5, 7]: 2640 ng·h/mL; bioavailability [5, 7]: 48%; half-life [5, 7]: 3.31 h; Cmax [5, 7]: 1570 ng/mL
Cc1cnc(-c2cccc(C(=O)N(C)C)c2)c(F)c1-n1c(C)cc(OCc2ncc(F)cc2F)c(Cl)c1=O [Compound 32]	3.65 nM	–	–	IC50 (p38 MAPK/MK5): 6250 nM; IC50 ([1]; 24 hours): 2.89 nM
Cc1cnc(-c2cccc(S(C)(=O)=O)c2)c(F)c1-n1c(C)cc(OCc2ncc(F)cc2F)c(Cl)c1=O [Compound 33-P1]	0.056 nM	–	2.93 nM	AUC(0-t) [5, 6]: 1580 ng·h/mL; clearance [5, 6]: 10.8 mL/min/kg; half-life [5, 6]: 0.98 h; C0 [5, 6]: 3200 ng/mL; Vd [5, 6]: 0.32 L/kg; AUC(0-t) [5, 7]: 2800 ng·h/mL; bioavailability [5, 7]: 36.9%; half-life [5, 7]: 1.99 h; Cmax [5, 7]: 3670 ng/mL
Cc1cnc(-c2ccc(F)c([C@](C)(O)CO)c2)c(F)c1-n1c(C)cc(OCc2ncc(F)cc2F)c(Cl)c1=O [Compound 51-P2]	0.71 nM	–	–	IC50 (p38 MAPK/MK5): 4490 nM
Cc1cnc(-c2ccc(F)c(C(C)(C)O)c2)c(F)c1-n1c(C)cc(OCc2ncc(F)cc2F)c(Cl)c1=O [Compound 70-P1]	0.38 nM	> 4.66 h	11.2 nM	–
Cc1cnc(-c2ccc(F)c(C(C)(C)O)c2)cc1-n1c(C)cc(OCc2ncc(F)cc2F)c(Cl)c1=O [Compound 88-P2]	2.11 nM	> 4.66 h	–	–
Cc1cnc(-c2ccc(F)c(C(C)(C)O)c2F)cc1-n1c(C)cc(OCc2ncc(F)cc2F)c(Cl)c1=O [Compound 111-P2]	0.22 nM	> 4.66 h	1.43 nM	half-life at 1 μM [2]: > 4.66 h; half-life at 1 μM [3]: > 4.66 h
Cc1cnc(-c2cccc([C@@](C)(O)CO)c2F)c(F)c1-n1c(C)cc(OCc2ncc(F)cc2F)c(Cl)c1=O [Compound 112-P1]	0.13 nM	> 4.66 h	0.44 nM	–
Cc1cnc(-c2ccnc(C(C)(C)O)n2)cc1-n1c(C)cc(OCc2ncc(F)cc2F)c(Cl)c1=O [Compound C, reference compound]	–	–	26.4 nM	–
